Tests used:
Type in all cases: in vivo
[1] = test system: ragweed (common ragweed, Ambrosia elatior); assay: Test A postemergence; conditions: Ambrosia artemisiifolia, post-emergence, 240 h
How it was run: (§1)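 Ratings of 0 (no effect) to 100 (complete control) come from visual comparison with untreated controls roughly 10 d after treatment. Test chemicals, formulated in a non-phytotoxic solvent mixture with surfactant, were applied either as a preemergence directed soil spray on seeded soil or postemergence to one- to two-leaf plants 2 to 10 cm tall.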

[2] = test system: barnyardgrass (Echinochloa crus-galli); assay: Test A postemergence; conditions: Echinochloa crus-galli, post-emergence, 240 h
How it was run: as §1

[3] = test system: ryegrass, Italian (Italian ryegrass, Lolium multiflorum); assay: Test A postemergence; conditions: Lolium multiflorum, post-emergence, 240 h
How it was run: as §1

[4] = test system: wheat (Triticum aestivum); assay: Test A postemergence; conditions: Triticum aestivum, post-emergence, 240 h
How it was run: as §1

[5] = test system: pigweed (Amaranthus retroflexus); assay: Test A postemergence; conditions: Amaranthus retroflexus, post-emergence, 240 h
How it was run: as §1

Kochia (Kochia scoparia) [6] = assay: Test A postemergence; conditions: Bassia scoparia, post-emergence, 240 h
How it was run: as §1

[7] = test system: giant foxtail (Setaria faberii); assay: Test A postemergence; conditions: Setaria faberi, post-emergence, 240 h
How it was run: as §1

corn (Zea mays) = assay: Test A postemergence; conditions: Zea mays, post-emergence, 240 h
How it was run: as §1

[8] = test system: Galium (catchweed bedstraw, Galium aparine); assay: Test A postemergence; conditions: Galium, post-emergence, 240 h
How it was run: as §1

[9] = test system: blackgrass (Alopecurus myosuroides); assay: Test A postemergence; conditions: Alopecurus myosuroides, post-emergence, 240 h
How it was run: as §1

[10] = test system: ducksalad (Heteranthera limosa); assay: Test B flooded paddy test; conditions: Heteranthera limosa, 250 g ai/ha, Flood; 0 to 100 scale where 0 is no effect and 100 is complete control; read-out: Ducksalad plant response rating
How it was run: (§2)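 Visual ratings (0 none to 100 complete control) are relative to untreated plants, taken 13–15 d after treatment in a greenhouse. Test material went straight into floodwater standing 3 cm above the soil, kept constant, on plants at the 2-leaf stage.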

[11] = test system: barnyardgrass (Echinochloa crus-galli); assay: Test B flooded paddy test; conditions: Echinochloa crus-galli, 250 g ai/ha, Flood; 0 to 100 scale where 0 is no effect and 100 is complete control; read-out: Barnyardgrass plant response rating
How it was run: as §2

rice (Oryra sativa) = assay: Test B flooded paddy test; conditions: Oryza sativa, 250 g ai/ha, Flood; 0 to 100 scale where 0 is no effect and 100 is complete control; read-out: Rice plant response rating
How it was run: as §2

[12] = test system: sedge, umbrella (small-flower umbrella sedge, Cyperus difformis); assay: Test B flooded paddy test; conditions: Cyperus difformis, 250 g ai/ha, Flood; 0 to 100 scale where 0 is no effect and 100 is complete control; read-out: Sedge, Umbrella plant response rating
How it was run: as §2

[13] = test system: ragweed (common ragweed, Ambrosia elatior); assay: Test A preemergence; conditions: Ambrosia artemisiifolia, pre-emergence, 240 h, 0 to 100 scale where 0 is no effect and 100 is complete control, read-out: Ragweed plant response rating
How it was run: as §1

[14] = test system: barnyardgrass (Echinochloa crus-galli); assay: Test A preemergence; conditions: Echinochloa crus-galli, pre-emergence, 240 h, Preemergence
How it was run: as §1

[15] = test system: ryegrass, Italian (Italian ryegrass, Lolium multiflorum); assay: Test A preemergence; conditions: Lolium multiflorum, pre-emergence, 240 h, 0 to 100 scale where 0 is no effect and 100 is complete control, read-out: Ryegrass, Italian plant response rating
How it was run: as §1

[16] = test system: pigweed (Amaranthus retroflexus); assay: Test A preemergence; conditions: Amaranthus retroflexus, pre-emergence, 240 h, 0 to 100 scale where 0 is no effect and 100 is complete control, read-out: Pigweed plant response rating
Kochia (Kochia scoparia) [17] = assay: Test A preemergence; conditions: Bassia scoparia, pre-emergence, 240 h, 0 to 100 scale where 0 is no effect and 100 is complete control, read-out: Kochia plant response rating
How it was run: as §1

[18] = test system: giant foxtail (Setaria faberii); assay: Test A preemergence; conditions: Setaria faberi, pre-emergence, 240 h, Preemergence
How it was run: as §1

[19] = 125 g ai/ha, preemergence, approx. 10 d

COc1cccc([C@H]2CNC(=O)[C@@H]2C(=O)Nc2cccc(F)c2F)c1F [Compound 1061]
60%: pest or weed control at 250 g/ha [11]
95%: pest or weed control at 250 g/ha [10]
0%: pest or weed control at 125 g/ha ([1]; 125 g ai/ha, postemergence, visual injury on 0 to 100 scale (0 no effect, 100 complete control), approx. 10 d, read-out: Ragweed plant response rating) | pest or weed control at 31 g/ha ([1]; Postemergence, 31 g ai/ha, visual injury after approx. 10 d, 0 to 100 scale, 0 no effect, 100 complete control, read-out: Plant response rating, Ragweed) | pest or weed control at 125 g/ha ([3]; 125 g ai/ha, postemergence, visual injury on 0 to 100 scale (0 no effect, 100 complete control), approx. 10 d, read-out: Ryegrass, Italian plant response rating) | pest or weed control at 31 g/ha ([3]; Postemergence, 31 g ai/ha, visual injury after approx. 10 d, 0 to 100 scale, 0 no effect, 100 complete control, read-out: Plant response rating, Ryegrass, Italian) | plant injury at 125 g/ha ([4]; 125 g ai/ha, postemergence, visual injury on 0 to 100 scale (0 no effect, 100 complete control), approx. 10 d, read-out: Wheat plant response rating) | plant injury at 31 g/ha ([4]; Postemergence, 31 g ai/ha, visual injury after approx. 10 d, 0 to 100 scale, 0 no effect, 100 complete control, read-out: Plant response rating, Wheat) | pest or weed control at 125 g/ha ([5]; 125 g ai/ha, postemergence, visual injury on 0 to 100 scale (0 no effect, 100 complete control), approx. 10 d, read-out: Pigweed plant response rating) | pest or weed control at 31 g/ha ([5]; Postemergence, 31 g ai/ha, visual injury after approx. 10 d, 0 to 100 scale, 0 no effect, 100 complete control, read-out: Plant response rating, Pigweed) | pest or weed control at 125 g/ha (Kochia (Kochia scoparia) [6]; 125 g ai/ha, postemergence, visual injury on 0 to 100 scale (0 no effect, 100 complete control), approx. 10 d, read-out: Kochia plant response rating) | pest or weed control at 31 g/ha (Kochia (Kochia scoparia) [6]; Postemergence, 31 g ai/ha, visual injury after approx. 10 d, 0 to 100 scale, 0 no effect, 100 complete control, read-out: Plant response rating, Kochia) | pest or weed control at 31 g/ha ([7]; Postemergence, 31 g ai/ha, visual injury after approx. 10 d, 0 to 100 scale, 0 no effect, 100 complete control, read-out: Plant response rating, Foxtail, Giant) | plant injury at 125 g/ha (corn (Zea mays); 125 g ai/ha, postemergence, visual injury on 0 to 100 scale (0 no effect, 100 complete control), approx. 10 d, read-out: Corn plant response rating) | Corn plant response rating (crop injury, 0 = no effect, 100 = complete kill) at 31 g/ha (corn (Zea mays); Postemergence, 31 g ai/ha, visual injury after approx. 10 d, 0 to 100 scale, 0 no effect, 100 complete control) | pest or weed control at 125 g/ha ([8]; 125 g ai/ha, postemergence, visual injury on 0 to 100 scale (0 no effect, 100 complete control), approx. 10 d, read-out: Galium plant response rating) | pest or weed control at 31 g/ha ([8]; Postemergence, 31 g ai/ha, visual injury after approx. 10 d, 0 to 100 scale, 0 no effect, 100 complete control, read-out: Plant response rating, Galium) | pest or weed control at 125 g/ha ([9]; 125 g ai/ha, postemergence, visual injury on 0 to 100 scale (0 no effect, 100 complete control), approx. 10 d, read-out: Blackgrass plant response rating) | pest or weed control at 31 g/ha ([9]; Postemergence, 31 g ai/ha, visual injury after approx. 10 d, 0 to 100 scale, 0 no effect, 100 complete control, read-out: Plant response rating, Blackgrass) | pest or weed control at 250 g/ha [12] | pest or weed control at 31 g/ha ([13]; 31 g ai/ha, Preemergence) | pest or weed control at 125 g/ha [13, 19] | pest or weed control at 31 g/ha ([15]; 31 g ai/ha, Preemergence) | pest or weed control at 125 g/ha [15, 19] | pest or weed control at 31 g/ha ([16]; 31 g ai/ha, Preemergence) | pest or weed control at 125 g/ha [16, 19] | pest or weed control at 31 g/ha (Kochia (Kochia scoparia) [17]; 31 g ai/ha, Preemergence) | pest or weed control at 125 g/ha (Kochia (Kochia scoparia) [17]; [19])
50%: pest or weed control at 31 g/ha ([2]; Postemergence, 31 g ai/ha, visual injury after approx. 10 d, 0 to 100 scale, 0 no effect, 100 complete control, read-out: Plant response rating, Barnyardgrass)
80%: pest or weed control at 125 g/ha ([2]; 125 g ai/ha, postemergence, visual injury on 0 to 100 scale (0 no effect, 100 complete control), approx. 10 d, read-out: Barnyardgrass plant response rating) | pest or weed control at 125 g/ha ([14]; 125 g ai/ha, visual injury rating after approximately 10 d, read-out: Barnyardgrass plant response rating (0 to 100 scale, 0 is no effect, 100 is complete control))
40%: pest or weed control at 31 g/ha ([14]; 31 g ai/ha, 0 to 100 scale where 0 is no effect and 100 is complete control, read-out: Barnyardgrass plant response rating)
15%: pest or weed control at 250 g/ha (rice (Oryra sativa))
20%: pest or weed control at 125 g/ha ([7]; 125 g ai/ha, postemergence, visual injury on 0 to 100 scale (0 no effect, 100 complete control), approx. 10 d, read-out: Foxtail, Giant plant response rating) | pest or weed control at 31 g/ha ([18]; 31 g ai/ha, 0 to 100 scale where 0 is no effect and 100 is complete control, read-out: Foxtail, Giant plant response rating)
70%: pest or weed control at 125 g/ha ([18]; 125 g ai/ha, visual injury rating after approximately 10 d, read-out: Foxtail, Giant plant response rating (0 to 100 scale, 0 is no effect, 100 is complete control))

Source: patent publication US12077503B2, “Substituted cyclic amides and their use as herbicides” (FMC CORPORATION, priority 2015, dated 2024)
